# Results: patent US20180161376A1, “COMPOSITIONS AND METHODS FOR NEURONAL DIFFERENTIATION OF CELLS” (Northern Sydney Local Health District, priority 2014, published 2018)
# How the values were obtained:
# Type in all cases: cell-based, human
# [1] = tested on: olfactory neurospheres (ONS); assay: Olfactory neurosphere (ONS) neuronal differentiation, immunostaining and morphology; settings: added to ONS differentiation media, 3-4 days
# Experimental: Cells were fixed in 4% paraformaldehyde for 20 min and then blocked for 2 h at room temperature before incubated with the appropriate primary antibodies overnight at 4° C. The following primary antibodies were used: mouse β-III-tubulin (Sigma, 1:500), mouse N-cam (Dako, 1:100), mouse GFAP (Merk, 1:500), chicken Sox1 (Merk, 1:500), rabbit Nestin (Merk, 1:500), rabbit Neurofilament-Light (Merk, 1:500), rabbit Synapsin (Calbiochem, 1:500) and sheep Olfactory Marker Protein (Abcam, 1:500). Appropriate secondary antibodies were added and incubated for lh before samples were washed and mounted using Prolong Gold (Invitrogen) and analyzed using either a fluorescent microscope (Nikon) or a confocal microscope (Leica). All secondary antibodies were from Molecular Probes and diluted at 1:1000, except for anti-sheep secondary antibody, which was from Dako and diluted at 1:500.
# Primary olfactory cells were dissociated into single cells and seeded onto Poly L-Lysine (Sigma) coated tissue culture dishes at 20,000 cells/cm^2 in sphering media, which consists of DMEM+1×ITS+50 μg/mL EGF+25 μg/mL FGF2. Cells were then incubated at 37° C. with 5% CO2 until neurospheres started to form. This normally takes 2-3 days. Small neurospheres (<200 μm in diameter) were manually picked under a dissecting microscope (Leica) and collected for differentiation. […]
# [2] = tested on: SMAD4; assay: RT-qPCR of SMAD4 mRNA in olfactory neurospheres treated with SB, LDN and TRIM; settings: ONS cells
# Experimental: Primary olfactory cells were dissociated into single cells and seeded onto Poly L-Lysine (Sigma) coated tissue culture dishes at 20,000 cells/cm^2 in sphering media, which consists of DMEM+1×ITS+[…]. Cells were then incubated at 37° C. with 5% CO2 until neurospheres started to form. This normally takes 2-3 days. Small neurospheres (<200 μm in diameter) were manually picked under a dissecting microscope (Leica) and collected for differentiation.
# For olfactory neurosphere differentiation experiments, cells were cultured in ONS differentiation media, which consists of neural basal media+1×B27+1×L-glutamine+pen/strep+1×β-mercaptoethanol+AA+BDNF supplemented with combinations of SB, LDN and TRIM. Cells were differentiated for 3-4 days before collected for analysis. Media was changed on the second day.
# RT-qPCR was performed on cDNA samples with a Rotor-Gene 6000 (Corbett) using SYBER green based assays (Qiagen). All samples were normalized to GAPDH and the relative expression of each gene was determined using the delta-delta CT method. The primer sequences used are as follows:
# The ability for ONS to respond to the treatments of SB, LDN and TRIM was tested. QPCR was performed according to the methods described in the foregoing examples.
# [3] = tested on: olfactory primary cells; assay: Olfactory primary cell culture differentiation, β-III-tubulin immunostaining; settings: 100 μM TRIM added, in all conditions, 4-7 days
SMILES,neurite morphology [1],level of inhibition of SMAD4 ([2]; compared to cells cultured in the absence of inhibitors),mRNA level / expression of SMAD4 ([2]; compared to cells cultured without inhibitors),β-III-tubulin positive cells on addition of NOS inhibitor [3]
"Cl.c1ccc2c(-c3cnn4cc(-c5ccc(N6CCNCC6)cc5)cnc34)ccnc2c1 [LDN193189, 4-(6-(4-(piperazin-1-yl)phenyl)pyrazolo[1,5-a]pyrimidin-3-yl)quinolone hydrochloride]",short neurites,80%,–,–
"NC(=O)c1ccc(-c2nc(-c3ccc4c(c3)OCO4)c(-c3ccccn3)[nH]2)cc1 [SB431542, 4-[4-(1,3-benzodioxol-5-yl)-5-(2-pyridinyl)-1H-imidazol-2-yl]benzamide]",short neurites,–,no change,–
"FC(F)(F)c1ccccc1-n1ccnc1 [TRIM, 1-(2-Trifluoromethylphenyl) Imidazole]",–,–,–,further increase in β-III-tubulin positive cells
